Test results published in patent publication US20230111853A1, “COMPOUNDS MODULATING PROTEIN RECRUITMENT AND/OR DEGRADATION” (Orionis Biosciences, Inc., priority 2019, published 2023).
pEC50: −log10 of the molar value.

Assays:
[1] = target: T1, SALL4 recruitment to CRBN (Homo sapiens, UniProt Q96SW2); assay: Recruitment Assay (MAPPIT-like): SALL4 recruitment to CRBN; type: cell-based; conditions: HEK293T cells; pSEL-SALL4+pMG1-CRBN; luciferase 24 hours after treatment; read-out: EC50_SALL4
T1 construct: Full size proteins were fused for each of the target proteins tested, except in the case of IKZF1 where isoform 7 was used; expressed in transfected cells; host or cells: HEK293T
Description: (§1) In this experimental set-up, cells were transfected with a construct encoding a CRBN-fusion protein and another one encoding a substrate-fusion protein. Test compound activity was assessed with increasing concentrations of test compounds (dose-response studies) to monitor the ability to promote CRBN-ligand-induced protein interaction.
(§2) Full size proteins were fused for each of the target proteins tested, except in the case of IKZF1 where isoform 7 was used. For the study, the following were used: IKZF1 recruitment: pSEL-CRBN+pMG1-IKZF1(isoform 7); ASS1 recruitment: pSEL-CRBN+pMG1-ASS1. SALL4 recruitment: pSEL-SALL4+pMG1-CRBN. […] Luciferase activity was measured 24 hours after test compound treatment using the Luciferase Assay System kit (PROMEGA, Madison, Wis.) with an Ensight plate reader (PERKIN ELMER LIFE SCIENCES, Waltham, Mass.). Data points depicted fold induction of the average luciferase activity of triplicate samples from EPO+test compound treated cells versus EPO only treated cells. Error bars represent standard deviations. Curves were fit using 4-parameter nonlinear regression in […] PRISM software.

[2] = tested on: IKZF1, ASS1 and SALL4 recruitment to CRBN; assay: Recruitment assessment: recruitment of any tested substrate from among IKZF1, ASS1 and SALL4; type: cell-based; conditions: any tested substrate at any tested compound concentration
Description: as §1, §2

T1 sequence (Q96SW2 whole entry, the tested form may be a part, canonical isoform): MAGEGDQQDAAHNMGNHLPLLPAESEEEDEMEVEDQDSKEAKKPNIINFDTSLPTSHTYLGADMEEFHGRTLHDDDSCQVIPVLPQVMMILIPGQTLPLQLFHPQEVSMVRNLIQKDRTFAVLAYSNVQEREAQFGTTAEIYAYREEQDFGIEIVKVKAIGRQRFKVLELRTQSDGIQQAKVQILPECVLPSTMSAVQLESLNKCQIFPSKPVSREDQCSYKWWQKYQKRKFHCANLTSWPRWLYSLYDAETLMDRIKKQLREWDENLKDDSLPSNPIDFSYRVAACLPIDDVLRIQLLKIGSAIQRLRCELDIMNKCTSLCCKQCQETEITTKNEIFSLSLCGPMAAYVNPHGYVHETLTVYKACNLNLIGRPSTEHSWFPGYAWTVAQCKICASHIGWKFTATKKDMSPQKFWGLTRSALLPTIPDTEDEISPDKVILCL
T1 sequence (Q9UJQ4 whole entry partner, the tested form may be a part, canonical isoform): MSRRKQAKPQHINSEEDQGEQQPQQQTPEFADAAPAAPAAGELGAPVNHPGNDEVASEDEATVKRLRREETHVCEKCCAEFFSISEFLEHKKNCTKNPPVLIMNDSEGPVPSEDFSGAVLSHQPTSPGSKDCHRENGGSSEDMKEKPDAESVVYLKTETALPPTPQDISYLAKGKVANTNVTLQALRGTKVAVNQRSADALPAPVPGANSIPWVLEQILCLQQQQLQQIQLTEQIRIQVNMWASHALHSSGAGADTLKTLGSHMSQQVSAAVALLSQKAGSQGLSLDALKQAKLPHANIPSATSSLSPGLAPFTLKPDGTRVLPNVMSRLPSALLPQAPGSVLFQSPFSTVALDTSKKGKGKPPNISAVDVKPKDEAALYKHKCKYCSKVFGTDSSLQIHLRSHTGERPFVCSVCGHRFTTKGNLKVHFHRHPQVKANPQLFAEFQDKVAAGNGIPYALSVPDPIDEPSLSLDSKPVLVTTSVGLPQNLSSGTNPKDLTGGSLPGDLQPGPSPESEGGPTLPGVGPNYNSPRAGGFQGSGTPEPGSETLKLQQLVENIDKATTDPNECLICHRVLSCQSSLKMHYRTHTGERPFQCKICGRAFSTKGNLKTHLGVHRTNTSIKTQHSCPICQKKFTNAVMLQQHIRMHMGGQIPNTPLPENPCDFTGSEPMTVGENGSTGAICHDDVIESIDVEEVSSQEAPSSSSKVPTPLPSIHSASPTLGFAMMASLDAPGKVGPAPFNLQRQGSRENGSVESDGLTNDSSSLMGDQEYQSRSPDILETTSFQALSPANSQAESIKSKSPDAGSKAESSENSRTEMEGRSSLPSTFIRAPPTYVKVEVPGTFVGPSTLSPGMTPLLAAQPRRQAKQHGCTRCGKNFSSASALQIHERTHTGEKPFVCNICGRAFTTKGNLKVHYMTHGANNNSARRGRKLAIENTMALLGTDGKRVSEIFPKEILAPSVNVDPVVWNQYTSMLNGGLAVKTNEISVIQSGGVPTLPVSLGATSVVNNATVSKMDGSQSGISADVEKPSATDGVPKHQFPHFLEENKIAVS
T1 sequence (Q16531 whole entry partner, the tested form may be a part, canonical isoform): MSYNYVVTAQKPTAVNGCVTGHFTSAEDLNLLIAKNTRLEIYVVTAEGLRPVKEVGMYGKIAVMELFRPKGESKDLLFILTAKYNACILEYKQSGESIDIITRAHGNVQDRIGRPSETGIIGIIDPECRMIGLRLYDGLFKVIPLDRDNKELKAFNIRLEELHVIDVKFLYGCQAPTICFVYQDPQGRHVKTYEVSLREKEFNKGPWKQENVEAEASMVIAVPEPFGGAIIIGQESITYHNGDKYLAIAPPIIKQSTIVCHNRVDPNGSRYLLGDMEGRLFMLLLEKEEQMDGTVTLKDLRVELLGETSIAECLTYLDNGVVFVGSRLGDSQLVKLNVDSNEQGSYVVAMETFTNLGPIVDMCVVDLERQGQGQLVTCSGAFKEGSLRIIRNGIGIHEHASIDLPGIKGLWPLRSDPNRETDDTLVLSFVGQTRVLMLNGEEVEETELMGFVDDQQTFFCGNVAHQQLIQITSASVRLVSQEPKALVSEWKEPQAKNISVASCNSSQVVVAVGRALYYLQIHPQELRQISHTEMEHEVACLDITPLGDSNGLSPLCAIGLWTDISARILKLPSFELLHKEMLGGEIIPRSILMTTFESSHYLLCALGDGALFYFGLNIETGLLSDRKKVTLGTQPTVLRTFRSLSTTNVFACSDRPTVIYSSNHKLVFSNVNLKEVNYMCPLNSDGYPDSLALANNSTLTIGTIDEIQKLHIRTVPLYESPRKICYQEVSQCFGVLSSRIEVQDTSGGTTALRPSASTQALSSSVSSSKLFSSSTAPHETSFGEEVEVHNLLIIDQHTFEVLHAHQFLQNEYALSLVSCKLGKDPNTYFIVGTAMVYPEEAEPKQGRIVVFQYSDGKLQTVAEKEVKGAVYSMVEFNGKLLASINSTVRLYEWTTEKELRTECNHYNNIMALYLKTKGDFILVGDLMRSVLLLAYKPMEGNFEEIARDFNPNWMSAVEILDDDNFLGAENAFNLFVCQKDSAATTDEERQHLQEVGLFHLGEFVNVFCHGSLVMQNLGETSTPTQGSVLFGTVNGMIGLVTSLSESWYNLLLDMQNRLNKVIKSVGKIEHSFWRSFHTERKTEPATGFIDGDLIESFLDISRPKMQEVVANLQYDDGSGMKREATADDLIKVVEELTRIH

pEC50 [1] | Structure (SMILES) | Recruitment Assessment [2]
5.57 | CC(C)OC1c2ccccc2C(=O)N1C1CCC(=O)NC1=O (centres unmarked) [3-(1-isopropoxy-3-oxo-isoindolin-2-yl)piperidine-2,6-dione] | TRUE
5.90 | Cc1nc2ccc(C#N)c(N)c2c(=O)n1C1CCC(=O)NC1=O (centres unmarked) [C10001, 5-amino-3-(2,6-dioxo-3-piperidyl)-2-methyl-4-oxo-quinazoline-6-carbonitrile] | TRUE
5.94 | O=C1CCC(N2C(=O)c3ccccc3C2NCc2ccccc2)C(=O)N1 (centres unmarked) [C10239, 3-[1-(benzylamino)-3-oxo-isoindolin-2-yl]piperidine-2,6-dione] | TRUE
5.84 | CN(C)C1c2ccccc2C(=O)N1C1CCC(=O)NC1=O (centres unmarked) [C10981, 3-[1-(dimethylamino)-3-oxo-isoindolin-2-yl]piperidine-2,6-dione] | TRUE
5.58 | O=C1CCC(N2Cc3ccc(NCC(=O)NC4CCOCC4)cc3C2=O)C(=O)N1 (centres unmarked) [C12693, 2-[[2-(2,6-dioxo-3-piperidyl)-3-oxo-isoindolin-5-yl]amino]-N-tetrahydropyran-4-yl-acetamide] | TRUE
5.46 | O=C1CCC(N2Cc3ccc(NCC(=O)NC4CCOC4)cc3C2=O)C(=O)N1 (centres unmarked) [C12694, 2-[[2-(2,6-dioxo-3-piperidyl)-3-oxo-isoindolin-5-yl]amino]-N-tetrahydrofuran-3-yl-acetamide] | TRUE
6.11 | Cc1ccc2nnn(C3CCC(=O)NC3=O)c(=O)c2c1 (centres unmarked) [C16463, 3-(6-methyl-4-oxo-1,2,3-benzotriazin-3-yl)piperidine-2,6-dione] | TRUE
6.04 | Cc1ccc2c(=O)n(C3CCC(=O)NC3=O)nnc2c1 (centres unmarked) [C17800, 3-(7-methyl-4-oxo-1,2,3-benzotriaan-3-yl)piperidirie-2,6-dione] | TRUE
6.06 | COCC(=O)Nc1cccc2c1CN(C1CCC(=O)NC1=O)C2=O (centres unmarked) [C22564, N-[2-(2,6-dioxo-3-piperidyl)-1-oxo-isoindolin-4-yl]-2-methoxy-acetamide] | TRUE
5.94 | CN(C)CC(=O)Nc1cccc2c1CN(C1CCC(=O)NC1=O)C2=O (centres unmarked) [C22586, 2-(dimethylamino)-N-[2-(2,6-dioxo-3-piperidyl)-1-oxo-isoindolin-4-yl] acetamide] | TRUE
6.92 | CCOC(=O)Nc1cccc2c1CN(C1CCC(=O)NC1=O)C2=O (centres unmarked) [C22622, ethyl N-[2-(2,6-dioxo-3-piperidyl)-1-oxo-isoindolin-4-yl]carbamate] | TRUE
7.05 | O=C1CCC(N2Cc3cccc(F)c3C2=O)C(=O)N1 (centres unmarked) [C23066, 3-(7-fluoro-1-oxo-isoindolin-2-yl)piperidine-2,6-dione] | TRUE
6.57 | Cc1ccc2c(c1)C(=O)N(C1CCC(=O)NC1=O)C2 (centres unmarked) [C28620, 3-(6-methyl-1-oxo-isoindolin-2-yl)piperidine-2,6-dione] | TRUE
6.73 | CC(=O)Nc1ccc2c(c1)CN(C1CCC(=O)NC1=O)C2=O (centres unmarked) [C29361, N-[2-(2,6-dioxo-3-piperidyl)-1-oxo-isoindolin-5-yl]acetamide] | TRUE
5.52 | CC(=O)NC1c2ccccc2C(=O)N1C1CCC(=O)NC1=O (centres unmarked) [C33779, N-[2-(2,6-dioxo-3-piperidyl)-3-oxo-isoindolin-1-yl]acetamide] | TRUE
5.58 | CC(=O)NCCNc1ccc2c(c1)CN(C1CCC(=O)NC1=O)C2=O (centres unmarked) [C35745, N-[2-[[2-(2,6-dioxo-3-piperidyl)-1-oxo-isoindolin-5-yl]amino]ethyl]acetamide] | TRUE
6.56 | CCOC(=O)NCCNc1ccc2c(c1)CN(C1CCC(=O)NC1=O)C2=O (centres unmarked) [C35754, ethyl N-[2-[[2-(2,6-dioxo-3-piperidyl)-1-oxo-isoindolin-5-yl]amino]ethyl]carbamate] | TRUE
– | O=C1CCC(N2Cc3ccc(NC(=O)C4=C5C=CN=C5N=CC4)cc3C2=O)C(=O)N1 (centres unmarked) [C80395, N-[2-(2,6-dioxo-3-piperidyl)-3-oxo-isoindolin-5-yl]-5H-pyrrolo [2,3-b]pyridine-4-carboxamide] | TRUE
– | NC(=O)CNc1ccc2c(c1)C(=O)N(C1CCC(=O)NC1=O)C2 (centres unmarked) [C84961, 2-[[2-(2,6-dioxo-3-piperidyl)-3-oxo-isoindolin-5-yl]amino]acetamide] | FALSE
– | O=C1CCC(N2Cc3ccc(NCC(=O)NC4CC4)cc3C2=O)C(=O)N1 (centres unmarked) [C84963, N-cyclopropyl-2-[[2-(2,6-dioxo-3-piperidyl)-3-oxo-isoindolin-5-yl]amino]acetamide] | FALSE

pEC50 [1] | Structure (SMILES) | Recruitment Assessment [2]
– | CN(C)C(=O)CNc1ccc2c(c1)C(=O)N(C1CCC(=O)NC1=O)C2 (centres unmarked) [C84964, 2-[[2-(2,6-dioxo-3-piperidyl)-3-oxo-isoindolin-5-yl]amino]-N,N-dimethyl-acetamide] | FALSE
– | O=C(CNc1ccc2c(c1)C(=O)N(C1CCC(=O)NC1=O)C2)NCc1ccccc1 (centres unmarked) [C84966, N-benzyl-2-[[2-(2,6-dioxo-3-piperidyl)-3-oxo-isoindolin-5-yl]amino]acetaimde] | FALSE
– | CC(=O)NCC(=O)Nc1ccc2c(c1)C(=O)N(C1CCC(=O)NC1=O)C2 (centres unmarked) [C84967, 2-acetamido-N-[2-(2,6-dioxo-3-piperidyl)-3-oxo-isoindolin-5-yl]acetamide] | TRUE
– | O=C1CCC(N2Cc3ccc(N4CCNC4=O)cc3C2=O)C(=O)N1 (centres unmarked) [C84971, 3-[1-oxo-6-(2-oxoimidazolidin-1-yl)isoindolin-2-yl]piperidine-2,6-dione] | FALSE
– | O=C1CCC(N2Cc3ccc(NCC(=O)N4CCc5ccccc5C4)cc3C2=O)C(=O)N1 (centres unmarked) [C95329, 3-[6-[[2-(3,4-dihydro-1H-isoquinolin-2-yl)-2-oxo-ethyl]amino]-1-oxo-isoindolin-2-yl]piperidine-2,6-] | FALSE
– | O=C1CCC(N2Cc3ccc(NCC(=O)N4Cc5ccccc5C4)cc3C2=O)C(=O)N1 (centres unmarked) [C95330, 3-[6-[(2-isoindolin-2-yl-2-oxo-ethyl)amino]-1-oxo-isoindolin-2-yl] piperidine-2,6-dione] | FALSE
– | CN(Cc1cnn(C)c1)C(=O)CNc1ccc2c(c1)C(=O)N(C1CCC(=O)NC1=O)C2 (centres unmarked) [C95333] | FALSE
– | O=C1CCC(N2Cc3ccc(NCC(=O)N4CC5COCC5C4)cc3C2=O)C(=O)N1 (centres unmarked) [C95334, 3-[6-[[2-(1,3,3a,4,6,6a-hexahydrofuro[3,4-c]pyrrol-5-yl)-2-oxo-ethyl]amino]-1-oxo-isoindolin-2-yl]piperidine-2.6-dione] | FALSE
– | CC1Cc2ccccc2N1C(=O)CNc1ccc2c(c1)C(=O)N(C1CCC(=O)NC1=O)C2 (centres unmarked) [C95336, 3-[6-[[2-(2-methylindolin-1-yl)-2-oxo-ethyl]amino]-1-oxo-isoindolin-2-yl]piperidine-2,6-dione] | FALSE
– | CN(CC1CC1)C(=O)CNc1ccc2c(c1)C(=O)N(C1CCC(=O)NC1=O)C2 (centres unmarked) [C95338, N-(cyclopropylmethyl)-2-[[2-(2,6-dioxo-3-piperidyl)-3-oxo-isoindolin-5-yl]amino]-N-methyl-acetamide] | FALSE
– | C=CCC1c2ccccc2C(=O)N1C1CCC(=O)NC1=O (centres unmarked) [C96413, 3-(1-allyl-3-oxo-isoindolin-2-yl)piperidine-2,6-dione] | FALSE
– | CN(C)c1ccc2c(c1)C(=O)N(C1CCC(=O)NC1=O)C2 (centres unmarked) [C96622, 3-[6-(dimethylamino)-1-oxo-isoindolin-2-yl]piperidine-2,6-dione] | FALSE
– | CC(C)(C)OC(=O)CC1c2ccccc2C(=O)N1C1CCC(=O)NC1=O (centres unmarked) [C98053, t-butyl 2-[2-(2,6-dioxo-3-piperidyl)-3-oxo-isoindolin-1-yl]acetate] | FALSE
– | O=C1CC=CC(C(=O)NC2CCC(=O)NC2=O)=N1 (centres unmarked) [C98696, N-(2,6-dioxo-3-piperidyl)-2-oxo-3H-pyridine-6-carboxamide] | FALSE
– | O=C1CCC(N2Cc3cccc([N+](=O)[O-])c3C2=O)C(=O)N1 (centres unmarked) [C99884, 3-(7-nitro-1-oxo-isoindolin-2-yl)piperidine-2,6-dione] | FALSE
– | Cc1nc2cccc(N)c2c(=O)n1C1CCC(=O)NC1=O (centres unmarked) [CC-122, 3-(5-amino-2-methyl-4-oxo-quinazolin-3-yl)piperidine-2,6-dione, reference compound] | TRUE
– | O=C1CC[C@H](N2Cc3c(OCc4ccc(CN5CCOCC5)cc4)cccc3C2=O)C(=O)N1 [CC-220, (3S)-3-[4-[[4-(morpholinomethyl)phenyl]methoxy]-1-oxo-isoindolin-2-yl]piperidine-2,6-dione, reference compound] | TRUE
– | Nc1cccc2c1C(=O)N(C1CCC(=O)NC1=O)C2=O (centres unmarked) [POM, 4-amino-2-(2,6-dioxo-3-piperidyl)isoindoline-1,3-dione, reference compound] | TRUE
– | O=C1CCC(N2C(=O)c3ccccc3C2=O)C(=O)N1 (centres unmarked) [THL, Thalidomide, reference compound] | TRUE
